Measured values as given in paper PMC8213057, “Targeting ALK2: An Open Science Approach to Developing Therapeutics for the Treatment of Diffuse Intrinsic Pontine Glioma” (Journal of Medicinal Chemistry, 2020).

Assays:
[1] = molecular target: T1, ARK5/NUAK1 (Homo sapiens, UniProt O60285); details: 1 μM; Run 1, Run 2
T1 sequence (O60285 1-661): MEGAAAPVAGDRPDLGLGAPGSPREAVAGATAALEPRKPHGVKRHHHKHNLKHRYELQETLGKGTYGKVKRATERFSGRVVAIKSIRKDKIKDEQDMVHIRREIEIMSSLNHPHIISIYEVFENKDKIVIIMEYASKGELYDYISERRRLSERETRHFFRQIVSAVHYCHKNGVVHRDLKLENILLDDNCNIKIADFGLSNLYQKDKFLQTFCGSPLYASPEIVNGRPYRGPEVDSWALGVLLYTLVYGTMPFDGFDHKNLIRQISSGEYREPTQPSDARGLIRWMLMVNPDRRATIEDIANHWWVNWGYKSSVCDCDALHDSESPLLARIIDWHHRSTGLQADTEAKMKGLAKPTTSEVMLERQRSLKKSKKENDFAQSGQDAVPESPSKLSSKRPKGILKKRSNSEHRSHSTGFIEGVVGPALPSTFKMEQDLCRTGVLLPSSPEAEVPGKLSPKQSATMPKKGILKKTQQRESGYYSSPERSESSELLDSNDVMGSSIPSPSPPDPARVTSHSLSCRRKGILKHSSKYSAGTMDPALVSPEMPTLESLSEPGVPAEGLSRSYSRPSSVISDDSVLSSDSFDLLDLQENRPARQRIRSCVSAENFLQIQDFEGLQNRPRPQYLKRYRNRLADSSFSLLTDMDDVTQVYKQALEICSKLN

[2] = molecular target: c-Kit (Homo sapiens, UniProt P10721); details: 1 μM; Run 1, Run 2
c-Kit, sequence (P10721 26-976): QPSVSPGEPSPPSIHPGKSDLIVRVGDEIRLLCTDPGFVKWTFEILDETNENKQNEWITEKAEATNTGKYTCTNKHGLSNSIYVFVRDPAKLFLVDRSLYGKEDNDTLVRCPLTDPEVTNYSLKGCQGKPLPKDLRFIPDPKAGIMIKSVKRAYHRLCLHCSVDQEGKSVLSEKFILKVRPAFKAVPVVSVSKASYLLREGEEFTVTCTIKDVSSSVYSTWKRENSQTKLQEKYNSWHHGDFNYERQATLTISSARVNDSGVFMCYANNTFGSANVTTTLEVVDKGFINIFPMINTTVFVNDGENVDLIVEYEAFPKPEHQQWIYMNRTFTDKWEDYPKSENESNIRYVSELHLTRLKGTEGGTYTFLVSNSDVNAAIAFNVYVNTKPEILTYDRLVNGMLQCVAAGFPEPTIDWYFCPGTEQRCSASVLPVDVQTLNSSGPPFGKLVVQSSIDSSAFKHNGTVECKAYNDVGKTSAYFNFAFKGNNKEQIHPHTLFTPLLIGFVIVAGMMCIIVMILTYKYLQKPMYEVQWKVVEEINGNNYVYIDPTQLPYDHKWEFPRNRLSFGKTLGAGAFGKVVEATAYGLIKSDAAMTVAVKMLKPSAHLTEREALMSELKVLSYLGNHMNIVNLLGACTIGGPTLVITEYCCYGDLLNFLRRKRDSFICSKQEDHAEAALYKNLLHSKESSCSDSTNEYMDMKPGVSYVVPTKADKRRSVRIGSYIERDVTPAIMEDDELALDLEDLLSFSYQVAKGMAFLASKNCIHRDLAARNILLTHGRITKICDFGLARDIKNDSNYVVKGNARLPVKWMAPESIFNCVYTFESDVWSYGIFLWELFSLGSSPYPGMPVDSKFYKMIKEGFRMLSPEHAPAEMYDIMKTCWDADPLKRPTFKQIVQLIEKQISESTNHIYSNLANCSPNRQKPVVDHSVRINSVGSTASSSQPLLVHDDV

[3] = molecular target: CAMK4 (Homo sapiens, UniProt Q16566); details: 1 μM; Run 1, Run 2
CAMK4, sequence (Q16566 whole entry): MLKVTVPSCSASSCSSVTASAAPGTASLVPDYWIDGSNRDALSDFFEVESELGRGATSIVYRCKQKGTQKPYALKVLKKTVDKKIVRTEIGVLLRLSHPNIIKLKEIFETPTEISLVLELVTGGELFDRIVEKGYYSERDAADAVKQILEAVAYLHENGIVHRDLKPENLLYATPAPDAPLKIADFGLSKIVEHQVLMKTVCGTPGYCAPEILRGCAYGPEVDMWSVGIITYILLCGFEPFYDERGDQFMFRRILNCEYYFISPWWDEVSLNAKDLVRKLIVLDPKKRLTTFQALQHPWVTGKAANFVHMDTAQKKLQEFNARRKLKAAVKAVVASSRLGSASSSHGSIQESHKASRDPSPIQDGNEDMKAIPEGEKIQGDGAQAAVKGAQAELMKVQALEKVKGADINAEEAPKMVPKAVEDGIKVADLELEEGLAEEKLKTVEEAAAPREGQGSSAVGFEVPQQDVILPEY

[4] = molecular target: CDK3/cyclin E2 (Homo sapiens, UniProt Q00526); details: 1 μM; Run 1, Run 2
[5] = molecular target: T2, DMPK (Homo sapiens, UniProt Q09013); details: 1 μM; Run 1, Run 2
T2 sequence (Q09013 1-629): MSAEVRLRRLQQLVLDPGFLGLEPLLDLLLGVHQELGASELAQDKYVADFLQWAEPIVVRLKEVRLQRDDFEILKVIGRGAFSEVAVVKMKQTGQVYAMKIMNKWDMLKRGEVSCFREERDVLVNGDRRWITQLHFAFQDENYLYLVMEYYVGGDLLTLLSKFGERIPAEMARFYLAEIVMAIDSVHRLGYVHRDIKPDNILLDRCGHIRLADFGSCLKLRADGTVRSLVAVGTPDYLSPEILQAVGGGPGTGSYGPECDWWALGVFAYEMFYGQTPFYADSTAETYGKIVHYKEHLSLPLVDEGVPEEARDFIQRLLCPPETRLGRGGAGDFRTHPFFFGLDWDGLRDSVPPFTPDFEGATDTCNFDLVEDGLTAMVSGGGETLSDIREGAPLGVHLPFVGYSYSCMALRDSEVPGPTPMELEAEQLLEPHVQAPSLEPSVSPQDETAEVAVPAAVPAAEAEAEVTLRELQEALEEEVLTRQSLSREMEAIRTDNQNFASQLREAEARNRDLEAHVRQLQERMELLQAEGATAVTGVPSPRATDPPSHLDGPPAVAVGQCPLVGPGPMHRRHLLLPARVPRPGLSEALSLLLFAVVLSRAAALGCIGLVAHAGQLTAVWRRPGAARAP

[6] = molecular target: FLT1/VEGFR1 (Homo sapiens, UniProt P17948); details: 1 μM; Run 1, Run 2
FLT1/VEGFR1, sequence (P17948 27-1338): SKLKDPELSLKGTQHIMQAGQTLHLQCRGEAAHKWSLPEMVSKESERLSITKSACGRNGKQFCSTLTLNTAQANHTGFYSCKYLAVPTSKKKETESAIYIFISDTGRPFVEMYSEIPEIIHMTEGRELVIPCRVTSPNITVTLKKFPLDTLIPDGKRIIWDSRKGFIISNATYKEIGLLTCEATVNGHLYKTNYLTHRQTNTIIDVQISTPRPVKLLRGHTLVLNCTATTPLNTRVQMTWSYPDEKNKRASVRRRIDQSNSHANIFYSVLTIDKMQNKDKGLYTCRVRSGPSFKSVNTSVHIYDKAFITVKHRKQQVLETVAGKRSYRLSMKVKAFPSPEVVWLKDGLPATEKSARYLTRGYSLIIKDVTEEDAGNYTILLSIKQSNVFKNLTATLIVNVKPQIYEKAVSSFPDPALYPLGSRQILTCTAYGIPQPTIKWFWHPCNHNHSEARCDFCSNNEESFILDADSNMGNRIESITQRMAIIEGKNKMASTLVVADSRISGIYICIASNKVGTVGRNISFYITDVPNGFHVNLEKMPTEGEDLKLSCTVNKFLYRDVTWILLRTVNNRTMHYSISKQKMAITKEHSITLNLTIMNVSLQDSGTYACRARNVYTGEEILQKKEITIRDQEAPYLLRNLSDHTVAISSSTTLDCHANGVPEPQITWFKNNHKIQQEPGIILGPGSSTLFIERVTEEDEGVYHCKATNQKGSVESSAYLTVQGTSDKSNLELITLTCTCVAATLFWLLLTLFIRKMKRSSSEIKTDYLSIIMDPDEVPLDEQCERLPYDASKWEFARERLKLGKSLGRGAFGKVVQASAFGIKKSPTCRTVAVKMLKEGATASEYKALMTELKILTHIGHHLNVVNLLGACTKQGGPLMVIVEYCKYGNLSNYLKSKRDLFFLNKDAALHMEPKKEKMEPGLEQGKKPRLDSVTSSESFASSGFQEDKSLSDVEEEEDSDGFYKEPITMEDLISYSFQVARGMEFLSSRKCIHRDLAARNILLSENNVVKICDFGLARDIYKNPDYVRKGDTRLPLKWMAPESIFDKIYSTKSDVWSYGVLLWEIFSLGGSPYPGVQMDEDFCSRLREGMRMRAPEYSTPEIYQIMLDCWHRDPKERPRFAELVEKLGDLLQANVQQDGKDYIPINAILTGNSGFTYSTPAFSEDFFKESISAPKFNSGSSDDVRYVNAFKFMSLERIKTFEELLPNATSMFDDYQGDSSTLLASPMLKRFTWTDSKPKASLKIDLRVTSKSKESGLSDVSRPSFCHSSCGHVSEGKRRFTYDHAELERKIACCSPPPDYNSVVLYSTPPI

[7] = molecular target: TRKB (Homo sapiens, UniProt Q16620); details: 1 μM; Run 1, Run 2
TRKB, sequence (Q16620 32-822): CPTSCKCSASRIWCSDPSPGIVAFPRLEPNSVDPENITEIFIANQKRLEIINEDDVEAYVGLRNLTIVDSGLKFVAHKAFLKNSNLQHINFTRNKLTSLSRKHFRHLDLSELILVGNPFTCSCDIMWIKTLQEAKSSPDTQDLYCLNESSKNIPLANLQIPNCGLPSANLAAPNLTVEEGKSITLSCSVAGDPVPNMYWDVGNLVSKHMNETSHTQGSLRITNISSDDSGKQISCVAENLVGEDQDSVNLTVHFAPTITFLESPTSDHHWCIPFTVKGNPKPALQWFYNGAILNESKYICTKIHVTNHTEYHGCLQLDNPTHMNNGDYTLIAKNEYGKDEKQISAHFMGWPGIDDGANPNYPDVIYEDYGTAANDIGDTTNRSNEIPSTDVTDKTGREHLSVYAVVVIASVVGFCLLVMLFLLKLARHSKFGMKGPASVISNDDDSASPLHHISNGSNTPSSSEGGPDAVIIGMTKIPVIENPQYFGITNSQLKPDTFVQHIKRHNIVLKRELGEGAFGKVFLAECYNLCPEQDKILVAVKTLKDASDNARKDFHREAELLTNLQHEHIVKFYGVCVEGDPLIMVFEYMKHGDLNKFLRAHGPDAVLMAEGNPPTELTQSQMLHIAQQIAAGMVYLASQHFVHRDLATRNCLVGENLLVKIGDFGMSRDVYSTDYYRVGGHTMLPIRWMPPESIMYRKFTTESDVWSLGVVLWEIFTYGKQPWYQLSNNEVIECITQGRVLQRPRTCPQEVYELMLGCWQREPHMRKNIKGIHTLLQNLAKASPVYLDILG

[8] = molecular target: T3, ULK3 (Homo sapiens, UniProt Q6PHR2); details: 1 μM; Run 1, Run 2
T3 sequence (Q6PHR2 1-472): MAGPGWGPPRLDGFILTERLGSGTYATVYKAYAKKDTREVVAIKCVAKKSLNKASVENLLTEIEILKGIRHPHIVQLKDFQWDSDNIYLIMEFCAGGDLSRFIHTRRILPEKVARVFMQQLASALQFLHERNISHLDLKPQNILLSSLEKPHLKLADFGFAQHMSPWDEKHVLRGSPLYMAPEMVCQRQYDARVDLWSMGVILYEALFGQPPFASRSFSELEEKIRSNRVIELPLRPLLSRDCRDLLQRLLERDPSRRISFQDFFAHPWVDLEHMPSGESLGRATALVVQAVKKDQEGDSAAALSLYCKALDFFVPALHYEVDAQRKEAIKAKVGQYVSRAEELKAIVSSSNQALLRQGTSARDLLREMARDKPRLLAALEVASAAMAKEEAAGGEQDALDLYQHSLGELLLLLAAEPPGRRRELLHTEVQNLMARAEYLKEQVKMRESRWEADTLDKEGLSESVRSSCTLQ

[9] = molecular target: T4, DYRK4 (Homo sapiens, UniProt Q9NR20); assay: biochemical; details: read-out: % enzyme activity, 1 μM; Run 1, Run 2
T4 sequence (Q9NR20 1-520): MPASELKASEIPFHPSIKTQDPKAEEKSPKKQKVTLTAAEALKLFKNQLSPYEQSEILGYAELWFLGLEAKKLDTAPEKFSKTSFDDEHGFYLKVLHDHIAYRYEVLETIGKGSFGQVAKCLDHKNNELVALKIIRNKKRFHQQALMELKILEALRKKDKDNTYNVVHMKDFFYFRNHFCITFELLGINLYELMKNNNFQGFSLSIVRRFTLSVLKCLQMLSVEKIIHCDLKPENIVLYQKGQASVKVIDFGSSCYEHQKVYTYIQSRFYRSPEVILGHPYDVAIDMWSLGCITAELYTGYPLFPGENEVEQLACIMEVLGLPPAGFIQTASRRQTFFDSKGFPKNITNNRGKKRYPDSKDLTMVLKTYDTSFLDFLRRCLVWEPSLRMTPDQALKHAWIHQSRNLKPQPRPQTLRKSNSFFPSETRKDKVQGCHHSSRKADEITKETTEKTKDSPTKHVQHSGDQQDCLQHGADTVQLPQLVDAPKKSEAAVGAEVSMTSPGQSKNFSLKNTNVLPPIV

[10] = molecular target: EPHA7 (Homo sapiens, UniProt Q15375); assay: biochemical; details: read-out: % enzyme activity, 1 μM; Run 1, Run 2
EPHA7, sequence (Q15375 28-998): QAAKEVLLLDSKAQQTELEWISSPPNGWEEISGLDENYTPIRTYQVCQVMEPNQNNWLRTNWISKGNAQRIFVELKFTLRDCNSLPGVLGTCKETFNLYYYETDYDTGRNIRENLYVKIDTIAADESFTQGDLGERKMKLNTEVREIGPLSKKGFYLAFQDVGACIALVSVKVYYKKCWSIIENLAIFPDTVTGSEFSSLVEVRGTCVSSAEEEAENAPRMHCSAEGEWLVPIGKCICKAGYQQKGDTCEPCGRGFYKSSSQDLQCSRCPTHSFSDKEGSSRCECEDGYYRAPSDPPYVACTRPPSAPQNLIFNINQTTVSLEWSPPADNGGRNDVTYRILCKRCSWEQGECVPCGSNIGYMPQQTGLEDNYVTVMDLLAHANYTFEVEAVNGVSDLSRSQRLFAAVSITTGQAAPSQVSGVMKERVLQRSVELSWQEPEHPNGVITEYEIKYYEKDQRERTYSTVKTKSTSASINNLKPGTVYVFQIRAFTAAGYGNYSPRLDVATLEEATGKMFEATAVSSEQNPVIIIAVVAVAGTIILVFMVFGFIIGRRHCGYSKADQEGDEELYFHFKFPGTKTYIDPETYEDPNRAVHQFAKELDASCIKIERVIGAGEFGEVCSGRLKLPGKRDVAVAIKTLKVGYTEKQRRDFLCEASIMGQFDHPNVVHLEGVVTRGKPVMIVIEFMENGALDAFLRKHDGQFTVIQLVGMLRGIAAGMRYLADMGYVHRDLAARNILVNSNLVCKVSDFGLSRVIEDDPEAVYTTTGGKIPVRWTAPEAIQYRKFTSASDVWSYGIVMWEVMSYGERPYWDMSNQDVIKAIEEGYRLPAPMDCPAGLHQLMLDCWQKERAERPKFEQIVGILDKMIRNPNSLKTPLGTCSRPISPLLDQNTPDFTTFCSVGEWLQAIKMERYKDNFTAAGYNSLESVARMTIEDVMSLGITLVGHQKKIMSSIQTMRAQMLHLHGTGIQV

Row | Structure (SMILES) | % enzyme activity [1] | % enzyme activity [2] | % enzyme activity [3] | % enzyme activity [4] | % enzyme activity [5] | % enzyme activity [6] | % enzyme activity [7] | % enzyme activity [8] | remaining activity at 1 µM [9] | remaining activity at 1 µM [10]
1 | COc1cc(-c2cncc(-c3ccc(N4C[C@@H](C)N(C)[C@@H](C)C4)cc3)c2C)cc(F)c1C(N)=O [Compound 26c, 2-Fluoro-6-methoxy-4-(4-methyl-5-(4-((3R,5S)-3,4,5-trimethylpiperazin-1-yl)phenyl)pyridin-3-yl)benzamide] | 93.75% | 74.89% | 100.90% | 83.94% | 99.12% | 104.04% | 98.44% | 97.24% | 101% | 98.4%
2 | COc1cc(-c2cncc(-c3ccc(N4CCN(C)CC4)cc3)c2C)cc(F)c1C(N)=O [Compound 26a, 2-Fluoro-6-methoxy-4-(4-methyl-5-(4-(4-methylpiperazin-1-yl)phenyl)pyridin-3-yl)benzamide] | 90.26% | 74.03% | 98.68% | 88.05% | 108.75% | 105.29% | 99.94% | 91.23% | 103% | 101%
